The test system of one data set is CRMM-2. The data set is described as follows: Antiproliferative activity against human CRMM-2 cells assessed as cell growth inhibition incubated for 72 hrs by CCK8 assay. It counts as functional, cell-based. As to conditions: CRMM-2, 72 h.
A short description of data set [1]: Antiproliferative activity against human CM2005.1 cells assessed as cell growth inhibition incubated for 72 hrs by CCK8 assay. It counts as functional, cell-based. As to conditions: CM2005.1, 72 h.
A short description of data set [2]: Antiproliferative activity against human HL7702 cells assessed as cell growth inhibition incubated for 72 hrs by CCK8 assay. It counts as toxicity, cell-based. As to conditions: HL7702 (L02) cells. On the technique in general: Tetrazolium assays rely on reduction of a dye to a coloured formazan, in cell work by metabolically active cells.
Data set [3] in a line: Antiproliferative activity against human PIG1 cells assessed as cell growth inhibition incubated for 72 hrs by CCK8 assay. It counts as toxicity, cell-based.
The test system of data set [4] is CRMM-1. The data set can be described thus: Antiproliferative activity against human CRMM-1 cells assessed as cell growth inhibition incubated for 72 hrs by CCK8 assay. It counts as functional, cell-based. Particulars: CRMM-1, 72 h.
Data set [5] has as its system CRMM-1. The data set can be described thus: Inhibition of homologous recombination in human CRMM-1 cells at 10 uM incubated for 12 hrs by real-time PCR analysis. Type of data set: functional, cell-based. A general note: Quantitative PCR measures a nucleic acid by following its amplification.
Data set [6] in a line: Antiproliferative activity against human CM-AS16 cells assessed as cell growth inhibition incubated for 72 hrs by CCK8 assay. As to conditions: CM-AS16, 72 h. It counts as functional, cell-based.
Data set [7] is described as follows: Inhibition of homologous recombination in human CRMM-1 cells at 10 uM incubated for 12 hrs by real-time PCR analysis relative to control. Type of data set: functional.

Activity calls are given as the source filed them. The rule behind the calls is not given here.

The term IC50 denotes the concentration needed to halve the response being measured. In general, inhibition refers to the change of the read-out against control, counted positive when it falls.

Turning to `O=C(CCCc1ccccc1)c1c(OCc2cccnc2)ccc2ccccc12`, the IC50 with CRMM-2 was determined as 48.5 µM; in data set [1], 58.1 µM; with CRMM-1 [4], 16 µM. Further, the results for the 50% inhibitory concentration (IC50) at 72 h in data set [2] and in data set [3] were 64.9 µM and 24.9 µM, respectively. Further, in the data set with CRMM-1 [5], the inhibition result is “inactive”.

On to `CCCNCCCOc1cc2c(cc1C(=O)CCCc1ccccc1)OCCO2`, for which the half-inhibitory concentration (IC50) in the data set on CRMM-2 came out at 8.8 µM; in data set [6], 4.4 µM; in data set [1], 11.6 µM; with CRMM-1 [4], 5.5 µM. Also, the IC50 at 72 h in data set [2] was determined as 27.7 µM; in data set [3], 15.4 µM. In addition, the inhibition entry in the data set on CRMM-1 [5] was “inactive”.

Consider `C=C(CCc1ccccc1)c1ccccc1OCC(O)CNCCC` (stereo unspecified), for which the IC50 with CRMM-2 came to 9.5 µM; in data set [6], 4 µM; in data set [1], 9.1 µM; with CRMM-1 [4], 6.3 µM. Further, the IC50 at 72 h in data set [2] is 14.8 µM; in data set [3], 16.1 µM. Also, in the data set with CRMM-1 [5], the inhibition result was “inactive”.

On to `CCCCCCCNCC(O)COc1ccccc1C(=O)CCc1ccccc1` (stereo unspecified), for which the IC50 stood at 6.6 µM with CRMM-2, 5.6 µM in data set [6], 4.6 µM in data set [1] and 2.6 µM in the data set on CRMM-1 [4]. Further, the IC50 at 72 h came to 5.7 µM in data set [2] and 8.8 µM in data set [3]. In addition, in data set [7], the inhibition at 10 µM was determined as 53.9%.

As for `CCCNCC(O)COc1ccc(C(=O)CCc2ccccc2)cc1` (stereo unspecified), the half-inhibitory concentration (IC50) with CRMM-2 amounted to 21 µM; in data set [6], 18.9 µM; in data set [1] it was 56.2 µM; in the data set on CRMM-1 [4] it was 28.5 µM. Further, the IC50 at 72 h in data set [2] came to 44 µM; in data set [3], 26.8 µM. For the same molecule, the inhibition at 10 µM in data set [7] is 5.5%.

In the case of `CCCNCC(O)COc1ccccc1C(=O)Cc1ccccc1` (stereo unspecified), the concentration for half-maximal inhibition (IC50) in the data set with CRMM-2 was determined as 30.6 µM; in data set [6], 40.7 µM; in data set [1] it was 60 µM; with CRMM-1 [4], 45.9 µM. In addition, the IC50 at 72 h in data set [2] and in data set [3] was > 100 µM in each case. Also, the inhibition at 10 µM in data set [7] stood at 57.9%.

Take `CCCNCCCOc1cc2ccccc2cc1C(=O)CCCc1ccccc1`: the IC50 in the data set with CRMM-2 came to 6.7 µM; in data set [6] it was 6.8 µM; in data set [1] it was 6.6 µM; with CRMM-1 [4] it was 10.4 µM. Also, the figures for the IC50 at 72 h in data set [2] and in data set [3] were 11.9 µM and 13.6 µM, respectively. The inhibition at 10 µM in data set [7] worked out at 67.1%.

For `O=C(CCCc1ccccc1)c1c(OCCCN2CCCC2)ccc2ccccc12`, the half-inhibitory concentration (IC50) in the data set on CRMM-2 came to 8 µM; in data set [6] it was 11.9 µM; in data set [1], 12.8 µM; with CRMM-1 [4] it was 5.6 µM. For the same molecule, the half-maximal inhibitory concentration (IC50) at 72 h was determined as 22 µM in data set [2] and 7.8 µM in data set [3]. The inhibition at 10 µM in data set [7] was 71%.

With `CCC(=O)NCCCOc1ccc2ccccc2c1C(=O)CCCc1ccccc1`, the half-inhibitory concentration (IC50) with CRMM-2 was determined as 9.3 µM; in data set [6] it was 9 µM; in data set [1] it was 37.7 µM; with CRMM-1 [4], 8.2 µM. Moreover, the IC50 at 72 h in data set [2] came to 29.5 µM; in data set [3], 19.5 µM. Besides, in data set [7], the inhibition at 10 µM was found to be 35%.

Turning to `CCCNCCCOc1cc2c(cc1C(=O)CCCc1ccccc1)OCO2`, the half-maximal inhibitory concentration (IC50) with CRMM-2 came to 8.2 µM; in data set [6], 10.8 µM; in data set [1], 6.8 µM; with CRMM-1 [4], 6.9 µM. In addition, the IC50 at 72 h in data set [2] worked out at 32.7 µM; in data set [3] it was 15.5 µM. Also, the inhibition at 10 µM in data set [7] was determined as 43%.

Regarding `CCCNCCCOc1ccc2ccccc2c1C(=O)CCCc1ccccc1`, the IC50 with CRMM-2 was 3.8 µM; in data set [6] it was 4 µM; in data set [1], 4.1 µM; in the data set with CRMM-1 [4], 3.1 µM. Moreover, the IC50 at 72 h in data set [2] amounted to 28.8 µM; in data set [3] it was 78.2 µM. The inhibition at 10 µM in data set [7] was determined as 75.2%.

Consider `CCCNCCCOc1c(C(=O)CCCc2ccccc2)ccc2ccccc12`, for which the IC50 in the data set with CRMM-2 is 7.5 µM; in data set [6], 10.8 µM; in data set [1], 11.7 µM; in the data set on CRMM-1 [4] it was 7.2 µM. In addition, the IC50 at 72 h in data set [2] turned out to be 28.4 µM; in data set [3], 14.5 µM. Also, the inhibition at 10 µM in data set [7] stood at 59.3%.

In the case of `O=C(CC(F)(F)F)NCCCOc1ccc2ccccc2c1C(=O)CCCc1ccccc1`, the IC50 with CRMM-2 came to 42.2 µM; in data set [6] it was 21.4 µM; in data set [1], 19.4 µM; with CRMM-1 [4], 9.8 µM. The IC50 at 72 h in data set [2] came out at 29.9 µM; in data set [3], 18.5 µM. Moreover, the inhibition at 10 µM in data set [7] was 40.1%.

Take `CCCCCCNCCCOc1ccccc1C(=O)CCCc1ccccc1`: the half-inhibitory concentration (IC50) came out at 1.6 µM in the data set with CRMM-2, 5.9 µM in data set [6], 15.8 µM in data set [1] and 6.5 µM with CRMM-1 [4]. The results for the half-inhibitory concentration (IC50) at 72 h in data set [2] and in data set [3] were 10.6 µM and 9.2 µM, respectively. The inhibition at 10 µM in data set [7] was 57.2%.

In the case of `CCCN1CC(COc2ccccc2C(=O)CCc2ccccc2)OC1=O` (stereo unspecified), the IC50 in data set [6] is > 100 µM. Besides, in the data set with CRMM-1 [5], the inhibition result was “inactive”.

Turning to `O=C(CCCc1ccccc1)c1c(OCCCN2CCC2)ccc2ccccc12`, the IC50 in the data set on CRMM-2 was 38.4 µM; in data set [6], 32.3 µM; in data set [1], 32.9 µM; in the data set on CRMM-1 [4], 20.6 µM. The results for the IC50 at 72 h in data set [2] and in data set [3] were 69.6 µM and 42.1 µM, respectively. Also, the inhibition at 10 µM in data set [7] stood at 17.9%.

Take `CN1CCN(CCCOc2ccc3ccccc3c2C(=O)CCCc2ccccc2)CC1`: the IC50 in the data set on CRMM-2 is 4.2 µM; in data set [6], 5.2 µM; in data set [1], 5.9 µM; in the data set on CRMM-1 [4], 5.6 µM. Further, the IC50 at 72 h is 10.5 µM in data set [2] and 10.4 µM in data set [3]. For the same molecule, the inhibition at 10 µM in data set [7] was 54.2%.

Take `CCCOCC(O)COc1ccccc1C(=O)CCc1ccccc1` (stereo unspecified): the IC50 in the data set on CRMM-2 amounted to 28.9 µM; in data set [6], 13.7 µM; in data set [1], 53 µM; with CRMM-1 [4], 20.9 µM. The results for the half-maximal inhibitory concentration (IC50) at 72 h in data set [2] and in data set [3] were 65 µM and 73.8 µM, respectively. For the same molecule, in data set [7], the inhibition at 10 µM was determined as 20.1%.

Turning to `CCCCCNCCCOc1ccccc1C(=O)CCCc1ccccc1`, the IC50 turned out to be 1.3 µM in the data set on CRMM-2, 5.5 µM in data set [6], 3.8 µM in data set [1] and 2.3 µM with CRMM-1 [4]. Moreover, the half-inhibitory concentration (IC50) at 72 h worked out at 2.4 µM in data set [2] and 1.9 µM in data set [3]. The inhibition entry in the data set with CRMM-1 [5] was “inactive”.

As to `O=C(CCCc1ccccc1)c1c(OCCCN2CCSC2)ccc2ccccc12`, the IC50 with CRMM-2 was determined as 6.6 µM; in data set [6] it was 9.2 µM; in data set [1], 11.9 µM; with CRMM-1 [4] it was 10.2 µM. Also, the results for the IC50 at 72 h in data set [2] and in data set [3] were 51.5 µM and 29.7 µM, respectively. The inhibition at 10 µM in data set [7] amounted to 72.1%.

Take `C=CCNCCCOc1ccc2ccccc2c1C(=O)CCCc1ccccc1`: the half-maximal inhibitory concentration (IC50) in the data set on CRMM-2 stood at 3.1 µM; in data set [6], 3.8 µM; in data set [1], 7.6 µM; with CRMM-1 [4] it was 2.2 µM. Also, the IC50 at 72 h in data set [2] was found to be 10.5 µM; in data set [3], 11.4 µM. The inhibition at 10 µM in data set [7] is 55.7%.

(Values after ChEMBL document CHEMBL5385901, “Drug repurposing of propafenone to discover novel anti-tumor agents by impairing homologous recombination to delay DNA damage recovery of rare disease conjunctival melanoma” (Eur J Med Chem, 2023).)
